Assays:
Type in all cases: biochemical
RET wt = molecular target: T1, RET wt (Homo sapiens, UniProt P07949); experiment: In vitro kinase activity assay (mobility shift assay), RET wild type; conditions: ATP 16 μM, reaction time 60 min
T1 construct: purchased Carna 08-159
Protocol: (§1) The IC50 (half inhibitory concentration) values of the compounds were used as an indicator to evaluate the inhibitory effect of the compound on RET wild-type, RET mutant, TRKa, SRC, BTK and/or mutated BTK kinase.
(§2) Using the method of Mobility shift assay, the compounds were tested for inhibitory activity against the following kinases: RET wild type, RET mutant, TRKa, SRC, BTK and/or mutated BTK. The initial concentration of the test compound was 1000 nM, 3-fold dilution, 10 concentrations, detected in a well for each concentration.
(§3) 20 mM hydroxyethylpiperazineethanesulfonic acid (Hepes) (pH 7.5) buffer, 10 mM MgCl2, 1 mM ethylene glycol bis(aminoethyl ether)tetraacetic acid (EGTA), 0.02% polyoxyethylene lauryl ether (Brij35), 0.02 mg/ml […] (BSA), 0.1 mM Na3VO4, 2 mM dithiothreitol (DTT), 1% DMSO.
(§4) The test compounds were dissolved in 100% dimethyl sulfoxide (DMSO) system, and prepared as 10 mM for use, and stored in a nitrogen cabinet away from light.
(§5) • (1) Preparing 1× kinase reaction buffer. • (2) Preparation of compound concentration gradient: the initial concentration of the compounds was 1000 nM, which was diluted as 100-fold final concentration of solution in 100% dimethyl sulfoxide (DMSO) in a 384-well plate. The compound was accurately 3-fold diluted with the kinase buffer solution, 10 concentrations in total, and the final concentration was 0.0508 nM. The 100-fold final concentration of solution in 100% dimethyl sulfoxide (DMSO) was obtained by dilution in 384 source plate. The liquid separator Echo 550 was used to transfer 250 nl of 100-fold final concentration of compound to the target 384 well plate. 250 nl of DMSO was added to the positive and negative control wells. • (3) 2.5-fold final concentration of kinase solution was prepared by the 1× kinase buffer. • (4) 10 4, of 2.5-fold final concentration of kinase solution was added to the compound well and the positive control well, respectively; 10 4, of 1× kinase buffer was added to the negative control well. • (5) After centrifuging at 1000 rpm for 30 second, the reaction plate was shaken and mixed, followed by incubation at room temperature for 10 min. • (6) a mixed solution of 25/15-fold final concentration of adenosine triphosphate (ATP) and kinase substrate was prepared by 1× kinase buffer. • (7) The mixed solution (15 μL) of 25/15-fold final concentration of adenosine triphosphate (ATP) and substrate was added to initiate the reaction. • (8) 384-well plate was centrifuged at 1000 rpm for 30 second, shaken and mixed well, and then incubated at room temperature for 30-240 min. • (9) After stopping the kinase reaction, the plate was centrifugated at 1000 rpm for 30 second, shaken and mixed well. • (10)The conversion rate was read with Caliper EZ Reader.
(§6) wherein Conversion%_sample is the conversion rate reading of the sample; Conversion%_min: the mean value of negative control wells, representing the conversion rate reading of wells without enzymes; Conversion%_max: the mean value of positive control wells, representing the conversion rate reading of wells without compound inhibition.
(§7) The log value of concentration was taken as the X axis, and the percentage inhibition rate was taken as the Y axis. Graphpad 6.0 analysis software was used to fit the dose-response curve, so as to obtain the IC50 value of each compound on the enzyme activity

BTK = molecular target: T2, BTK (Homo sapiens, UniProt Q06187); experiment: In vitro kinase activity assay (mobility shift assay), BTK; conditions: ATP 71 μM, reaction time 30 min
T2 construct: purchased Carna 08-180
Protocol: as §1, §2, §3, §4, §5, §6, §7

BTK C481S = molecular target: T3, BTK C481S (Homo sapiens, UniProt Q06187, C481S); experiment: In vitro kinase activity assay (mobility shift assay), BTK C481S; conditions: ATP 90 μM, reaction time 30 min
T3 construct: purchased Carna 08-547
Protocol: as §1, §2, §3, §4, §5, §6, §7

TRKa = molecular target: T4, TRKa (Homo sapiens, UniProt P04629); experiment: In vitro kinase activity assay (mobility shift assay), TRKa; conditions: ATP 47.8 μM, reaction time 30 min
T4 construct: purchased Carna 08-186
Protocol: as §1, §2, §3, §4, §5, §6, §7

RET G810R = molecular target: T5, RET G810R (Homo sapiens, UniProt P07949, G810R); experiment: In vitro kinase activity assay (mobility shift assay), RET G810R; conditions: ATP 201 μM, reaction time 4 h
T5 construct: purchased Proqinase 1724-0000-1
Protocol: as §1, §2, §3, §4, §5, §6, §7

T4 sequence (P04629 33-796): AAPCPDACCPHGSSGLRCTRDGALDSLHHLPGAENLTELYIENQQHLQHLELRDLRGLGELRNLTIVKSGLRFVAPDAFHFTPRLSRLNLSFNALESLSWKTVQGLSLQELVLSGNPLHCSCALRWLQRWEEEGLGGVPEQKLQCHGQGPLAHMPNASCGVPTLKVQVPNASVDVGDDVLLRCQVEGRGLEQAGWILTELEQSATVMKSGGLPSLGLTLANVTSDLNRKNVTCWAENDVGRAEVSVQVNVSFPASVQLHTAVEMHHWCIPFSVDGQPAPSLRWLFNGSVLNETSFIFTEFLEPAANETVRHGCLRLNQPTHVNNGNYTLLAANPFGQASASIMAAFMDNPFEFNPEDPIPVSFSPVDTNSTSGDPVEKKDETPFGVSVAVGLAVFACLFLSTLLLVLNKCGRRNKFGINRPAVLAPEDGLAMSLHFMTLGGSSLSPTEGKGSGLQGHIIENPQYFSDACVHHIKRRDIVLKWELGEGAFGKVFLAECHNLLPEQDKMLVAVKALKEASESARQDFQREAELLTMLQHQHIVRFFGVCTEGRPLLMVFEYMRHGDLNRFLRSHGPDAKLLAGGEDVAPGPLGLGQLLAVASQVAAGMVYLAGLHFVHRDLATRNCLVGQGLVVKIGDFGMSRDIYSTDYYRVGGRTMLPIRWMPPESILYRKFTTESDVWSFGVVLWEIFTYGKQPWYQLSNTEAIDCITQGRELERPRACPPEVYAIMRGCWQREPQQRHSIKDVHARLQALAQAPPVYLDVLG
T1 sequence (P07949 29-1114): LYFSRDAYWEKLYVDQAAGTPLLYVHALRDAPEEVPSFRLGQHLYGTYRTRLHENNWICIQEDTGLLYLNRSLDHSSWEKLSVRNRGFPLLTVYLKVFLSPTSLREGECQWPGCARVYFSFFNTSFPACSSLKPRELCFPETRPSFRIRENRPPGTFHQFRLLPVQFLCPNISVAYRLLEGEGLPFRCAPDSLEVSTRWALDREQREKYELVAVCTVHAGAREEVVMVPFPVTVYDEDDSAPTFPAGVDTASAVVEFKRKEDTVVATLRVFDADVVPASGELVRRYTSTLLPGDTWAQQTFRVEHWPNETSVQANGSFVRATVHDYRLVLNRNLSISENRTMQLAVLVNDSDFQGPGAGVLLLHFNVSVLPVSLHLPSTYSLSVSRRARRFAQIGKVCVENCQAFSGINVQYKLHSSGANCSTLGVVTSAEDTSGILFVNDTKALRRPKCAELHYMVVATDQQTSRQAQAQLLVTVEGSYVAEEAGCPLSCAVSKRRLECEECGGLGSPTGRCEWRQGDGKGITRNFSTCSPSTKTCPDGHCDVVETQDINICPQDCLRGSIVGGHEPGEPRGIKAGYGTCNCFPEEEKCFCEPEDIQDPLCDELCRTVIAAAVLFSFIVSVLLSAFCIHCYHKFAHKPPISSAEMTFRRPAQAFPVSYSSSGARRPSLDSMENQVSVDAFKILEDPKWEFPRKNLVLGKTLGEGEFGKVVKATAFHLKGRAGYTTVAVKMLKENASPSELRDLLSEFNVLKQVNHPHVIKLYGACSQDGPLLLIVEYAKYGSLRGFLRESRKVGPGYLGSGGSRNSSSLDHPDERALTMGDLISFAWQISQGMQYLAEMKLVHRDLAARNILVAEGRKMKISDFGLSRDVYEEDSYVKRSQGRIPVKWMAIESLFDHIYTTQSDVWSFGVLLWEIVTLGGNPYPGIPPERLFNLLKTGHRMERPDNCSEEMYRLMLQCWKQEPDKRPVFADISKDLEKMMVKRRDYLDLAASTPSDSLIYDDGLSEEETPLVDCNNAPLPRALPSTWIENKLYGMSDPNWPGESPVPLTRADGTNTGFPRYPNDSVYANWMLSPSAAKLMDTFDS
T3 sequence (Q06187 whole entry C481S): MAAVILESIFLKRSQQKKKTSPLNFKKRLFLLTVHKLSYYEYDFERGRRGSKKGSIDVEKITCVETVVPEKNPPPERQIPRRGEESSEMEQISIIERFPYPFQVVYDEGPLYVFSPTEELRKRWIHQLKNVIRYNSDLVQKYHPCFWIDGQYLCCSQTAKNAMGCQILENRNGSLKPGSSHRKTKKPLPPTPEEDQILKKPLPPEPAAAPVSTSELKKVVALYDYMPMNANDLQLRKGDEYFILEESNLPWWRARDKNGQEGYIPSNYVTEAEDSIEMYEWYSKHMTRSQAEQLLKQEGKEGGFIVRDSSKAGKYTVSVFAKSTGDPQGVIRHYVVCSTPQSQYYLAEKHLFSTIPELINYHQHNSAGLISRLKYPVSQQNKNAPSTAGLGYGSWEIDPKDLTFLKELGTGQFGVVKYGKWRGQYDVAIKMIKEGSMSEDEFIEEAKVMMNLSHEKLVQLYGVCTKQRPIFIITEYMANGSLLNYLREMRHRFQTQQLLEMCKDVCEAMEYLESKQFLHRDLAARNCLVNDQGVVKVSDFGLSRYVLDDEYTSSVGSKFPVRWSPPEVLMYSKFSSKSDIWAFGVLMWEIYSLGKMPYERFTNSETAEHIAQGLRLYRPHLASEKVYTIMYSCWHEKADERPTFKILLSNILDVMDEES
T2 sequence (Q06187 whole entry): as the sequence (Q06187 whole entry C481S) above, with S481C counted along it
T5 sequence (P07949 29-1114 G810R): as the sequence (P07949 29-1114) above, with G782R counted along it

`Nc1c(-c2ccccc2)c2nc3c(cnn13)C(=O)NCCOc1ncc(F)cc1CN2` [Example 65, (1^3E, 1^4E)-1^7-amino-4^5-fluoro-1^6-phenyl-5-oxa-2,8-diaza-1(5,3)-pyrazolino[1,5-a]pyrimidin-4(3,2)-pyridinacyclononaphan-9-one] gave an IC50 (RET wt) of 0.0021 µM, an IC50 (BTK) of 0.0035 µM and an IC50 (BTK C481S) of 0.0066 µM.

For `C[C@H]1CNC(=O)c2cnn3c(N)c(-c4ccc(F)cc4)c(nc23)NCc2cc(F)cnc2O1` [Compound 51, (S, 1^3E, 1^4E)-1^7-amino-1^6-(4-fluorophenyl)-4^5-fluoro-6-methyl-5-oxa-2,8-diaza-1(5,3)-pyrazolino[1,5-a]pyrimidin4(3,2)-pyridinacyclononaphan-9-one], the IC50 (RET wt) was 0.0016 µM, the IC50 (BTK) was 0.001 µM and the IC50 (BTK C481S) was 0.0019 µM.

`C[C@H]1CNC(=O)c2cnn3cc(-c4c(F)cccc4F)c(nc23)NCc2cc(F)cnc2O1` [Compound 22, (S, 1^3E, 1^4E)-1^6-(2,6-difluorophenyl)-4^5-fluoro-6-methyl-5-oxa-2,8-diaza-1(5,3)-pyrazolo[1,5-a]pyrimidin-4(3,2)-pyridinacyclononaphan-9-one] was tested, and the IC50 (RET wt) was 0.021 µM and the IC50 (TRKa) was 0.304 µM.

`C[C@H]1CNC(=O)c2cnn3cc(-c4ccccc4C(F)(F)F)c(nc23)NCc2cc(F)cnc2O1` [Compound 16, (S, 1^3E, 1^4E)-1^6-(2-trifluoromethylphenyl)-4^5-fluoro-6-methyl-5-oxa-2,8-diaza-1(5,3)-pyrazolo[1,5-a]pyrimidina-4(3,2)-pyridinacyclononaphan-9-one] gave an IC50 (RET wt) of 0.543 µM and an IC50 (TRKa) of 1.37 µM.

With `C[C@H]1CNC(=O)c2cnn3cc(-c4ccc(C(F)(F)F)cc4)c(nc23)NCc2cc(F)cnc2O1` [Compound 14, (S, 1^3E, 1^4E)-1^6-(4-trifluoromethylphenyl)-4^5-fluoro-6-methyl-5-oxa-2,8-diaza-1(5,3)-pyrazolo[1,5-a]pyrimidina-4(3,2)-pyridinacyclononaphan-9-one] the IC50 (RET wt) was 0.127 µM and the IC50 (TRKa) was > 10 µM.

For `C[C@H]1CNC(=O)c2cnn3cc(Nc4ccccc4)c(nc23)NCc2cc(F)cnc2O1` [Compound 25, (S, 1^3E, 1^4E)-4^5-fluoro-6-methyl-1^6-phenylamino-5-oxa-2,8-diaza-1(5,3)-pyrazolo[1,5-a]pyrimidina-4(3,2)-pyridinacyclononaphan-9-one], the IC50 (RET wt) was 0.366 µM and the IC50 (TRKa) was > 10 µM.

Compound `C[C@H]1CNC(=O)c2cnn3cc(-c4ccc(F)cc4)c(nc23)NCc2cc(F)cnc2O1` [Compound 8, (S, 1^3E, 1^4E)-1^6-(4-fluorophenyl)-4^5-fluoro-6-methyl-5-oxa-2,8-diaza-1(5,3)-pyrazolo[1,5-a]pyrimidina-4(3,2)-pyridinacyclononaphan-9-one] has an IC50 (RET wt) of 0.013 µM and an IC50 (TRKa) of 1.24 µM.

In the case of `C[C@H]1CNC(=O)c2cnn3cc(-c4ccccc4F)c(nc23)NCc2cc(F)cnc2O1` [Compound 6, (S, 1^3E, 1^4E)-1^6-(2-fluorophenyl)-4^5-fluoro-6-methyl-5-oxa-2,8-diaza-1(5,3)-pyrazolo[1,5-a]pyrimidina-4(3,2)-pyridinacyclononaphan-9-one], the IC50 (RET wt) is reported as 0.0051 µM and the IC50 (TRKa) is reported as 1.34 µM.

For `Cc1ccccc1-c1cn2ncc3c2nc1NCc1cc(F)cnc1O[C@@H](C)CNC3=O` [Compound 13, (S, 1^3E, 1^4E)-1^6-(2-methylphenyl)-4^5-fluoro-6-methyl-5-oxa-2,8-diaza-1(5,3)-pyrazolo[1,5-a]pyrimidina-4(3,2)-pyridinacyclononaphan-9-one], the IC50 (RET wt) was 0.0053 µM and the IC50 (TRKa) was > 10 µM.

`CC(C)OC(=O)Nc1ccc(-c2cn3ncc4c3nc2NCc2cc(F)cnc2O[C@@H](C)CNC4=O)c(Cl)c1` [Compound 45, iso-propyl 3-chloro-4-((S, 1^3E, 1^4E)-4^5-fluoro-6-methyl-9-oxo-5-oxa-aza-1(5,3)-pyrazolo[1,5-a]pyrimidin-4(3,2)-pyridinacyclononaphan-1^6-yl)phenyl) carbamate] was tested, and the IC50 (RET wt) was 0.0039 µM, the IC50 (RET G810R) was 0.07 µM and the IC50 (BTK) was 0.346 µM. It also gave an IC50 (BTK C481S) of 0.0424 µM.

Compound `C[C@H]1CNC(=O)c2cnn3c(N)c(-c4ccc(Cl)cc4)c(nc23)NCc2cc(F)cnc2O1` [Compound 50, (S, 1^3E, 1^4E)-1^7-amino-1^6-(4-chlorophenyl)-4^5-fluoro-6-methyl-5-oxa-2,8-diaza-1(5,3)-pyrazolino[1,5-a]pyrimidin-4(3,2)-pyridinacyclononaphan-9-one] has an IC50 (RET wt) of 0.00083 µM, an IC50 (BTK) of 0.0018 µM and an IC50 (BTK C481S) of 0.00148 µM.

`C[C@H]1CNC(=O)c2cnn3c(N)c(-c4ccc5[nH]ccc5c4)c(nc23)NCc2cc(F)cnc2O1` [Compound 53, (S, 1^3E, 1^4E)-1^7-amino-4^5-fluoro-1^6-(1H-indo1-5-yl)-6-methyl-5-oxo-2,8-diaza-1(5,3)-pyrazolo[1,5-a]pyrimidin-4(3,2)-pyridinacyclononaphan-9-one] was tested, and the IC50 (RET wt) was > 1 µM, the IC50 (RET G810R) was > 1 µM and the IC50 (BTK) was > 1 µM. The IC50 (BTK C481S) was > 1 µM.

Work on `C[C@H]1CNC(=O)c2cnn3cc(-c4cccc(F)c4)c(nc23)NCc2cc(F)cnc2O1` [Compound 7, (S, 1^3E, 1^4E)-1^6-(3-fluorophenyl)-4^5-fluoro-6-methyl-5-oxa-2,8-diaza-1(5,3)-pyrazolo[1,5-a]pyrimidina-4(3,2)-pyridinacyclononaphan-9-one] yielded an IC50 (RET wt) of 0.01 µM and an IC50 (TRKa) of 1.85 µM.

For `C[C@H]1CNC(=O)c2cnn3cc(-c4ccccc4)c(nc23)N[C@H](C)c2cc(F)cnc2O1` [Compound 26, (1^3E, 1^4E, 3R, 6S)-4^5-fluoro-3,6-dimethyl-1^6-phenyl-5-oxa-2,8-diaza-1(5,3)-pyrazolo[1,5-a]pyrimidin-4(3,2)-pyridinacyclononaphan-9-one], the IC50 (RET wt) was 0.009 µM and the IC50 (TRKa) was > 10 µM.

Work on `Cc1ccc(-c2cn3ncc4c3nc2NCc2cc(F)cnc2O[C@@H](C)CNC4=O)cc1` [Compound 11, (S, 1^3E, 1^4E)-1^6-(4-methylphenyl)-4^5-fluoro-6-methyl-5-oxa-2,8-diaza-1(5,3)-pyrazolo[1,5-a]pyrimidina-4(3,2)-pyridinacyclononaphan-9-one] yielded an IC50 (RET wt) of 0.015 µM and an IC50 (TRKa) of 0.925 µM.

In the case of `C[C@H]1CNC(=O)c2cnn3cc(C4CC4)c(nc23)NCc2cc(F)cnc2O1` [Compound 23, (S, 1^3E, 1^4E)-1^6-cyclopropyl-4^5-fluoro-6-methyl-5-oxa-2,8-diaza-1(5,3)-pyrazolo[1,5-a]pyrimidin-4(3,2)-pyridinacyclononaphan-9-one], the IC50 (RET wt) is reported as 0.448 µM and the IC50 (TRKa) is reported as > 10 µM.

`C[C@H]1CNC(=O)c2cnn3cc(-c4ccc(Cl)cc4Cl)c(nc23)NCc2cc(F)cnc2O1` [Compound 21, (S, 1^3E, 1^4E)-1^6-(2,4-dichlorophenyl)-4^5-fluoro-6-methyl-5-oxa-2,8-diaza-1(5,3)-pyrazolo[1,5-a]pyrimidin-4(3,2)-pyridinacyclononaphan-9-one] was tested, and the IC50 (RET wt) was 0.0059 µM and the IC50 (TRKa) was > 10 µM.

With `Cc1cccc(-c2cn3ncc4c3nc2NCc2cc(F)cnc2O[C@@H](C)CNC4=O)c1` [Compound 12, (S, 1^3E, 1^4E)-1^6-(3-methylphenyl)-4^5-fluoro-6-methyl-5-oxa-2,8-diaza-1(5,3)-pyrazolo[1,5-a]pyrimidina-4(3,2)-pyridinacyclononaphan-9-one] the IC50 (RET wt) was 0.036 µM and the IC50 (TRKa) was > 10 µM.
